# Reference: US20260042731A1, “(2,4-DICHLOROPHENOXY)ACETIC ACID ANALOGS” (CORTEVA AGRISCIENCE LLC, priority 2022, published 2026)
# Read-outs that look alike come from different tables or passages of the source.
# What was measured:
# [1] = system: glyphosate resistant Conyza canadensis (L.) (ERICA), horseweed; experiment: Postemergence herbicide evaluation, growth of Conyza canadensis (ERICA); type: in vivo; details: Erigeron canadensis, post-emergence, percent reduction in plant size relative to untreated control, read-out: Ave. ERICA; for pest or weed control at 280 g/ha: 280 g ae/ha; for pest or weed control at 560 g/ha: 560 g ae/ha
# [2] = system: weeds (ABUTH, AMATA, AMBEL, CHEAL, ERICA); experiment: Postemergence herbicide evaluation, overall average % weed control across ABUTH, AMATA, AMBEL, CHEAL, ERICA; type: in vivo; details: post-emergence, average over the five weeds, read-out: Overall Ave % Weed Control; for pest or weed control at 280 g/ha: 280 g ae/ha; for pest or weed control at 560 g/ha: 560 g ae/ha
# [3] = system: Ambrosia artemisiifolia (AMBEL), common ragweed; experiment: Postemergence herbicide evaluation, growth of Ambrosia artemisiifolia (AMBEL); type: in vivo; details: Ambrosia artemisiifolia, post-emergence, percent reduction in plant size relative to untreated control, read-out: AVE. AMBEL; for pest or weed control at 280 g/ha: 280 g ae/ha; for pest or weed control at 560 g/ha: 560 g ae/ha
# [4] = system: Amaranthus rudis (AMATA), tall water hemp; experiment: Postemergence herbicide evaluation, growth of Amaranthus rudis (AMATA); type: in vivo; details: Amaranthus tuberculatus, post-emergence, percent reduction in plant size relative to untreated control, read-out: Ave. AMATA; for pest or weed control at 280 g/ha: 280 g ae/ha; for pest or weed control at 560 g/ha: 560 g ae/ha
# [5] = system: Chenopodium album (CHEAL), common lambsquarters; experiment: Postemergence herbicide evaluation, growth of Chenopodium album (CHEAL); type: in vivo; details: Chenopodium album, post-emergence, percent reduction in plant size relative to untreated control, read-out: Ave. CHEAL; for pest or weed control at 280 g/ha: 280 g ae/ha; for pest or weed control at 560 g/ha: 560 g ae/ha
# [6] = Volatility of compounds measured by thermogravimetric analysis (TGA); type: physicochemical
# [7] = system: Abutilon theophrasti (ABUTH), velvetleaf; experiment: Postemergence herbicide evaluation, growth of Abutilon theophrasti (ABUTH); type: in vivo; details: Abutilon theophrasti, post-emergence, percent reduction in plant size relative to untreated control, read-out: AVE. ABUTH; for pest or weed control at 280 g/ha: 280 g ae/ha; for pest or weed control at 560 g/ha: 560 g ae/ha
SMILES,"pest or weed control at 280 g/ha ([1]; 168 h, 7 DAA) [%]","pest or weed control at 560 g/ha ([1]; 168 h, 7 DAA) [%]","pest or weed control at 280 g/ha ([1]; 336 h, 14 DAA) [%]","pest or weed control at 560 g/ha ([1]; 336 h, 14 DAA) [%]","pest or weed control at 280 g/ha ([1]; 504 h, 21 DAA) [%]","pest or weed control at 560 g/ha ([1]; 504 h, 21 DAA) [%]","pest or weed control at 280 g/ha ([2]; 168 h, 7 DAA) [%]","pest or weed control at 560 g/ha ([2]; 168 h, 7 DAA) [%]","pest or weed control at 280 g/ha ([2]; 336 h, 14 DAA) [%]","pest or weed control at 560 g/ha ([2]; 336 h, 14 DAA) [%]","pest or weed control at 280 g/ha ([2]; 504 h, 21 DAA) [%]","pest or weed control at 560 g/ha ([2]; 504 h, 21 DAA) [%]","pest or weed control at 280 g/ha ([3]; 168 h, 7 DAA) [%]","pest or weed control at 560 g/ha ([3]; 168 h, 7 DAA) [%]","pest or weed control at 280 g/ha ([3]; 336 h, 14 DAA) [%]","pest or weed control at 560 g/ha ([3]; 336 h, 14 DAA) [%]","pest or weed control at 280 g/ha ([3]; 504 h, 21 DAA) [%]","pest or weed control at 560 g/ha ([3]; 504 h, 21 DAA) [%]","pest or weed control at 280 g/ha ([4]; 168 h, 7 DAA) [%]","pest or weed control at 560 g/ha ([4]; 168 h, 7 DAA) [%]",other results
"O=C(COc1ccc(Cl)cc1Cl)ON(Cc1ccccc1)Cc1ccccc1 [Compound A14, N, N-Dibenzyl-O-(2-(2,4-dichlorophenoxy)acetyl)hydroxylamine]",43,40,50,50,43,40,51,44,51,46,47,39,50,40,63,50,58,33,63,55,"pest or weed control at 280 g/ha ([4]; 336 h, 14 DAA): 50%; pest or weed control at 560 g/ha ([4]; 336 h, 14 DAA): 48%; pest or weed control at 280 g/ha ([4]; 504 h, 21 DAA): 53%; pest or weed control at 560 g/ha ([4]; 504 h, 21 DAA): 43%; pest or weed control at 280 g/ha ([5]; 168 h, 7 DAA): 60%; pest or weed control at 560 g/ha ([5]; 168 h, 7 DAA): 58%; pest or weed control at 280 g/ha ([5]; 336 h, 14 DAA): 68%; pest or weed control at 560 g/ha ([5]; 336 h, 14 DAA): 63%; pest or weed control at 280 g/ha ([5]; 504 h, 21 DAA): 70%; pest or weed control at 560 g/ha ([5]; 504 h, 21 DAA): 63%; TGA Data (rate of weight loss, volatility) ([6]; 70° C.): 0.4 (70° C.) μg/min; pest or weed control at 280 g/ha ([7]; 168 h, 7 DAA): 38%; pest or weed control at 560 g/ha ([7]; 168 h, 7 DAA): 28%; pest or weed control at 280 g/ha ([7]; 336 h, 14 DAA): 23%; pest or weed control at 560 g/ha ([7]; 336 h, 14 DAA): 20%; pest or weed control at 280 g/ha ([7]; 504 h, 21 DAA): 13%; pest or weed control at 560 g/ha ([7]; 504 h, 21 DAA): 15%"
"O=C(COc1ccc(Cl)cc1Cl)ON1C(=O)c2ccccc2C1=O [Compound A15, 1,3-Dioxoisoindolin-2-yl 2-(2,4-dichlorophenoxy)acetate]",68,65,78,88,88,95,72,74,82,84,87,89,73,75,95,88,98,95,73,73,"pest or weed control at 280 g/ha ([4]; 336 h, 14 DAA): 82%; pest or weed control at 560 g/ha ([4]; 336 h, 14 DAA): 78%; pest or weed control at 280 g/ha ([4]; 504 h, 21 DAA): 84%; pest or weed control at 560 g/ha ([4]; 504 h, 21 DAA): 83%; pest or weed control at 280 g/ha ([5]; 168 h, 7 DAA): 68%; pest or weed control at 560 g/ha ([5]; 168 h, 7 DAA): 70%; pest or weed control at 280 g/ha ([5]; 336 h, 14 DAA): 73%; pest or weed control at 560 g/ha ([5]; 336 h, 14 DAA): 70%; pest or weed control at 280 g/ha ([5]; 504 h, 21 DAA): 80%; pest or weed control at 560 g/ha ([5]; 504 h, 21 DAA): 75%; TGA Data (rate of weight loss, volatility) [6]: 0.1 µg/min; pest or weed control at 280 g/ha ([7]; 168 h, 7 DAA): 78%; pest or weed control at 560 g/ha ([7]; 168 h, 7 DAA): 85%; pest or weed control at 280 g/ha ([7]; 336 h, 14 DAA): 83%; pest or weed control at 560 g/ha ([7]; 336 h, 14 DAA): 95%; pest or weed control at 280 g/ha ([7]; 504 h, 21 DAA): 88%; pest or weed control at 560 g/ha ([7]; 504 h, 21 DAA): 99%"
